Results taken from PubChem BioAssay AID330 (DTP/NCI, 2004).
Values joined by “and” are separate entries in the source; they are usually repeats but may differ in a detail not shown here. Equal values may be shown once. Inconclusive results and toxic doses are left out. How the source made its calls: active means survival T/C of 150% or more; inactive means T/C below 125% in these data.

System: P388 leukemia ip, CD2F1 mice, survival T/C
Assay: NCI In Vivo Anticancer Drug Screen. Data for tumor model P388 Leukemia (intraperitoneal) in CD2F1 (CDF1) mice
Conditions: endpoint: median survival time, higher = longer survival
In short: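 Mice carrying the transplanted tumor received test compound or vehicle. Survival was recorded in each group, and the value is the treated-group measurement divided by that of the vehicle-treated control group.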

[1] = dose: 50.0 mg/kg/injection, schedule: Q01DX005 (ip), vehicle: saline with Tween-80
[2] = dose: 50.0 mg/kg/injection, schedule: Q01DX009 (ip), vehicle: Klucel (hydroxypropylcellulose) (HPC)
[3] = dose: 100.0 mg/kg/injection, schedule: Q01DX005 (ip), vehicle: saline with Tween-80
[4] = dose: 100.0 mg/kg/injection, schedule: Q01DX009 (ip), vehicle: Klucel (hydroxypropylcellulose) (HPC)
[5] = dose: 200.0 mg/kg/injection, schedule: Q01DX005 (ip), vehicle: saline with Tween-80
[6] = dose: 100.0 mg/kg/injection, schedule: Q01DX009 (ip), vehicle: saline with Tween-80
[7] = dose: 200.0 mg/kg/injection, schedule: Q01DX009 (ip), vehicle: saline with Tween-80
[8] = dose: 25.0 mg/kg/injection, schedule: Q01DX005 (ip), vehicle: Klucel (hydroxypropylcellulose) (HPC)
[9] = dose: 50.0 mg/kg/injection, schedule: Q01DX005 (ip), vehicle: Klucel (hydroxypropylcellulose) (HPC)
[10] = dose: 100.0 mg/kg/injection, schedule: Q01DX005 (ip), vehicle: Klucel (hydroxypropylcellulose) (HPC)
[11] = dose: 50.0 mg/kg/injection, schedule: Q01DX009 (ip), vehicle: saline with Tween-80
[12] = dose: 60.0 mg/kg/injection, schedule: Q01DX005 (ip), vehicle: saline with Tween-80
[13] = dose: 120.0 mg/kg/injection, schedule: Q01DX005 (ip), vehicle: saline with Tween-80
[14] = dose: 240.0 mg/kg/injection, schedule: Q01DX005 (ip), vehicle: saline with Tween-80
[15] = dose: 100.0 mg/kg/injection, schedule: Q04DX003 (ip), vehicle: saline sonified
[16] = dose: 25.0 mg/kg/injection, schedule: Q01DX009 (ip), vehicle: saline with Tween-80

Measured: T/C

Nc1ccc(N)c2c1C(=O)c1ccccc1C2=O
inactive: [1] 110 % of control | [2] 105 % of control | [3] 105 % of control | [4] 103 % of control | [5] 105 % of control

BrC1CC(Br)c2c1c1c(c3c2C(Br)CC3Br)C(Br)CC1Br (stereo unspecified)
active: [6] 150 % of control | [7] 156 % of control

Cn1cc(C2NC(=O)c3ccccc3N2)c2ccccc21 (stereo unspecified)
inactive: [8] 102 % of control | [9] 106 % of control | dose: 88.0 mg/kg/injection, schedule: Q01DX005 (ip), vehicle: Klucel (hydroxypropylcellulose) (HPC) 113 % of control | [10] 115 % of control

O=c1c2[nH]c3ccccc3sc=2c(=O)c2ccccc12
inactive: [11] 90 % of control | [6] 91 % of control | [7] 106 % of control

COC(=O)[C@@H]1O[C@H]1c1ccccn1
inactive: [8] 96 % of control | [9] 97 % of control | [10] 100 % of control | dose: 200.0 mg/kg/injection, schedule: Q01DX005 (ip), vehicle: Klucel (hydroxypropylcellulose) (HPC) 97 % of control

O=C1NC2CCCC1C(c1ccccc1)NC2c1ccccc1 (stereo unspecified)
inactive: dose: 100.0 mg/kg/injection, schedule: Q04DX003 (ip), vehicle: suspension in saline 98 % of control | dose: 200.0 mg/kg/injection, schedule: Q04DX003 (ip), vehicle: suspension in saline 99 % of control | dose: 400.0 mg/kg/injection, schedule: Q04DX003 (ip), vehicle: suspension in saline 100 % of control

Clc1ccc2c(NCCCCCCNc3ccnc4cc(Cl)ccc34)ccnc2c1
inactive: dose: 6.25 mg/kg/injection, schedule: Q01DX005 (ip), vehicle: saline with Tween-80 97 % of control | dose: 12.5 mg/kg/injection, schedule: Q01DX005 (ip), vehicle: saline with Tween-80 90 % of control | dose: 25.0 mg/kg/injection, schedule: Q01DX005 (ip), vehicle: saline with Tween-80 99 % of control | [1] 100 % of control | [3] 109 % of control

NCCN1CCc2ccccc2C1
inactive: dose: 6.25 mg/kg/injection, schedule: Q04DX003 (ip), vehicle: saline 95 % of control | dose: 12.5 mg/kg/injection, schedule: Q04DX003 (ip), vehicle: saline 100 % of control | dose: 25.0 mg/kg/injection, schedule: Q04DX003 (ip), vehicle: saline 100 % of control

COc1c2ccoc2nc2c(OCC=C(C)C)c3c(cc12)OCO3
inactive: dose: 5.0 mg/kg/injection, schedule: Q01DX005 (ip), vehicle: Klucel (hydroxypropylcellulose) (HPC) 101 % of control | dose: 10.0 mg/kg/injection, schedule: Q01DX005 (ip), vehicle: Klucel (hydroxypropylcellulose) (HPC) 100 % of control | dose: 20.0 mg/kg/injection, schedule: Q01DX005 (ip), vehicle: Klucel (hydroxypropylcellulose) (HPC) 100 % of control | dose: 40.0 mg/kg/injection, schedule: Q01DX005 (ip), vehicle: Klucel (hydroxypropylcellulose) (HPC) 101 % of control | dose: 80.0 mg/kg/injection, schedule: Q01DX005 (ip), vehicle: Klucel (hydroxypropylcellulose) (HPC) 94 % of control

O=C1c2ccccc2C(=O)c2c(NCCCC3CCCN4CCCCC34)cccc21 (stereo unspecified)
inactive: [9] 105 % of control | [10] 100 % of control

O=C1OC(c2ccc(F)cc2)CC1CN1CCOCC1 (stereo unspecified)
inactive: [12] 105 % of control | [13] 105 % of control | [14] 99 % of control

O=CN(O)CC(=O)O
inactive: [11] 95 % of control | dose: 50.0 mg/kg/injection, schedule: Q04DX003 (ip), vehicle: saline sonified 104 % of control | [6] 104 % of control | dose: 100.0 mg/kg/injection, schedule: Q01DX009 (ip), vehicle: saline 100 % of control | [15] 100 % of control | dose: 100.0 mg/kg/injection, schedule: Q04DX003 (ip), vehicle: saline 100 % of control | [7] 95 % of control | dose: 200.0 mg/kg/injection, schedule: Q01DX009 (ip), vehicle: saline 109 % of control | dose: 200.0 mg/kg/injection, schedule: Q04DX003 (ip), vehicle: saline sonified 100 % of control | dose: 200.0 mg/kg/injection, schedule: Q04DX003 (ip), vehicle: saline 108 % of control | dose: 400.0 mg/kg/injection, schedule: Q01DX009 (ip), vehicle: saline with Tween-80 100 % of control | dose: 400.0 mg/kg/injection, schedule: Q01DX009 (ip), vehicle: saline 100 % of control | dose: 400.0 mg/kg/injection, schedule: Q04DX003 (ip), vehicle: saline sonified 100 % of control | dose: 400.0 mg/kg/injection, schedule: Q04DX003 (ip), vehicle: saline 91 % of control

Nc1ccc(S(=O)(=O)Nc2ccc3oc(=O)[nH]c3c2)cc1
inactive: dose: 50.0 mg/kg/injection, schedule: Q04DX002 (ip), vehicle: Klucel (hydroxypropylcellulose) (HPC) 101 % of control | dose: 100.0 mg/kg/injection, schedule: Q04DX002 (ip), vehicle: Klucel (hydroxypropylcellulose) (HPC) 104 % of control | dose: 200.0 mg/kg/injection, schedule: Q04DX002 (ip), vehicle: Klucel (hydroxypropylcellulose) (HPC) 104 % of control

Nc1n[nH]c(CCCCc2nc(N)n[nH]2)n1
inactive: dose: 60.0 mg/kg/injection, schedule: Q01DX005 (ip), vehicle: Klucel (hydroxypropylcellulose) (HPC) 97 % of control | dose: 120.0 mg/kg/injection, schedule: Q01DX005 (ip), vehicle: Klucel (hydroxypropylcellulose) (HPC) 99 % of control | dose: 240.0 mg/kg/injection, schedule: Q01DX005 (ip), vehicle: Klucel (hydroxypropylcellulose) (HPC) 98 % of control

O=c1[nH]nnc2nc(N3CCOCC3)sc12
inactive: dose: 100.0 mg/kg/injection, schedule: Q01DX001 (ip), vehicle: saline with Tween-80 103 % of control and 95 % of control | dose: 200.0 mg/kg/injection, schedule: Q01DX001 (ip), vehicle: saline with Tween-80 102 % of control and 104 % of control | dose: 300.0 mg/kg/injection, schedule: Q01DX001 (ip), vehicle: saline with Tween-80 100 % of control

CN1CCOC(c2ccccc2)c2ccsc2CC1 (stereo unspecified)
inactive: [12] 98 % of control | [13] 93 % of control

N=C1N=Nc2nc(C(C(=O)c3cccs3)c3nc4n(c3O)C(=N)N=N4)c(O)n21 (stereo unspecified)
inactive: [12] 97 % of control | [13] 100 % of control | [14] 106 % of control

[I][Ga]([I])[I]
inactive: [16] 116 % of control | [11] 111 % of control | [6] 100 % of control | [15] 100 % of control

O=Cc1ccccc1C=O
inactive: dose: 100.0 mg/kg/injection, schedule: Q04DX002 (ip), vehicle: saline with Tween-80 98 % of control | dose: 200.0 mg/kg/injection, schedule: Q04DX002 (ip), vehicle: saline with Tween-80 107 % of control | dose: 400.0 mg/kg/injection, schedule: Q04DX002 (ip), vehicle: saline with Tween-80 102 % of control

O=C(CC(=NCC(O)CN=C(CC(=O)c1ccccc1)c1ccccc1)c1ccccc1)c1ccccc1.[Ni] (stereo unspecified)
inactive: dose: 25.0 mg/kg/injection, schedule: Q04DX003 (ip), vehicle: saline with Tween-80 94 % of control | dose: 50.0 mg/kg/injection, schedule: Q04DX003 (ip), vehicle: saline with Tween-80 94 % of control | dose: 100.0 mg/kg/injection, schedule: Q04DX003 (ip), vehicle: saline with Tween-80 87 % of control | dose: 200.0 mg/kg/injection, schedule: Q04DX003 (ip), vehicle: saline with Tween-80 86 % of control

CCCCCCCCCSc1nc2ccc(NC(=O)/C=C/C(=O)O)cc2s1
inactive: dose: 12.5 mg/kg/injection, schedule: Q01DX009 (ip), vehicle: Klucel (hydroxypropylcellulose) (HPC) 97 % of control | dose: 25.0 mg/kg/injection, schedule: Q01DX009 (ip), vehicle: Klucel (hydroxypropylcellulose) (HPC) 107 % of control | [2] 106 % of control and 107 % of control | [4] 113 % of control

COC1NC(=O)Oc2ccccc21 (stereo unspecified)
inactive: [1] 109 % of control and 97 % of control | [3] 108 % of control and 109 % of control | [5] 114 % of control

O=c1ccc(N=Nc2cccc([N+](=O)[O-])c2)ccc1O
inactive: [16] 107 % of control | [11] 104 % of control | [6] 104 % of control

O=C1NC(=O)C2(OC3c4ccccc4C=CN3C3=C2C(=O)CC3)C(=O)N1 (stereo unspecified)
inactive: [1] 97 % of control | [3] 91 % of control | [5] 91 % of control
